{"source": "patent US6013795A", "about": "“Alpha-branched fluoroalkylcarbonyl fluorides and their derivatives” (3M Innovative Properties Company, priority 1996, dated 2000)"}
{"test": "surface tension of aqueous surfactant solutions and critical micelle concentration (K-12 Processor Tensiometer)", "format": "physicochemical", "settings": "deionized water; Table 3", "excerpt": "Critical Micelle Concentration (CMC): The critical micelle concentration is defined as the concentration at which further surface tension is no longer lowered with increasing levels of surfactant. […] Surface tension is then plotted vs. log concentration and the data points are connected. The resulting curve has a nearly horizontal flat portion at concentrations above the CMC and has a negative steep slope at concentrations below the CMC. The CMC is defined as the lowest surfactant concentration in the horizontal flat portion of the curve.\n(§1) Then the critical micelle concentration (CMC) was determined for each surfactant.\nas §1", "units": {"CMC": "ppm", "Surf. Tens. at the CMC": "dynes/cm"}}
{"molecule": "C[N+](C)([O-])CCCNC(=O)C(F)(C(F)(F)F)C(F)(F)C(F)(F)C(F)(F)C(F)(F)C(F)(F)C(F)(F)C(F)(F)C(F)(F)C(F)(F)C(F)(F)F", "note": "(stereo not shown) [Example E5, C10 F21 CF(CF3)CONH(CH2)3 N^+ (CH3)2 O^-]", "CMC": 500, "Surf. Tens. at the CMC": 17.1}
{"molecule": "C[N+](C)([O-])CCCNC(=O)C(F)(C(F)(F)C(F)(F)C(F)(F)F)C(F)(F)C(F)(F)C(F)(F)C(F)(F)C(F)(F)C(F)(F)C(F)(F)F", "note": "(stereo not shown) [Example E7, C7 F15 CF(C3 F7)CONH(CH2)3 N^+ (CH3)2 O^-]", "solubility remark": "low solub."}
{"molecule": "C[N+](C)([O-])CCCN(CCO)C(=O)C(F)(C(F)(F)F)C(F)(F)C(F)(F)C(F)(F)C(F)(F)C(F)(F)C(F)(F)C(F)(F)F", "note": "(stereo not shown) [Example E8, C7 F15 CF(CF3)CON(C2 H4 OH)(CH2)3 N^+ (CH3)2 O^-]", "Surf. Tens. at the CMC": 16.6}
{"molecule": "O=C(NCCC[N+]1([O-])CCOCC1)C(F)(C(F)(F)F)C(F)(F)C(F)(F)C(F)(F)C(F)(F)C(F)(F)C(F)(F)C(F)(F)F", "note": "(stereo not shown) [Example E9]", "solubility remark": "low solub."}
{"molecule": "O=C(NCCOC(=O)C(F)(C(F)(F)F)C(F)(F)C(F)(F)C(F)(F)C(F)(F)C(F)(F)C(F)(F)C(F)(F)F)c1cc[n+]([O-])cc1", "note": "(stereo not shown) [Example E10]", "CMC": 400, "Surf. Tens. at the CMC": 14.5}
{"molecule": "O=C(NCCOC(=O)C(F)(C(F)(F)F)C(F)(F)C(F)(F)C(F)(F)C(F)(F)C(F)(F)C(F)(F)F)c1cc[n+]([O-])cc1", "note": "(stereo not shown) [Example E11]", "CMC": 1000, "Surf. Tens. at the CMC": 15.5}
{"molecule": "O=C(OCCc1cccc[n+]1[O-])C(F)(C(F)(F)F)C(F)(F)C(F)(F)C(F)(F)C(F)(F)C(F)(F)C(F)(F)F", "note": "(stereo not shown) [Example E12]", "CMC": 8000, "Surf. Tens. at the CMC": 18.3}
{"molecule": "O=C(OCCc1cccc[n+]1[O-])C(F)(C(F)(F)F)C(F)(F)C(F)(F)C(F)(F)C(F)(F)C(F)(F)C(F)(F)C(F)(F)F", "note": "(stereo not shown) [Example E13]", "CMC": 6000, "Surf. Tens. at the CMC": 15.0}
{"molecule": "C[n+]1ccc(C(=O)NCCOC(=O)C(F)(C(F)(F)F)C(F)(F)C(F)(F)C(F)(F)C(F)(F)C(F)(F)C(F)(F)C(F)(F)F)cc1", "note": "(stereo not shown) [Example F1]", "CMC": 500, "Surf. Tens. at the CMC": 15.0}
{"molecule": "C[n+]1ccc(C(=O)NCCOC(=O)C(F)(C(F)(F)F)C(F)(F)C(F)(F)C(F)(F)C(F)(F)C(F)(F)C(F)(F)F)cc1", "note": "(stereo not shown) [Example F2]", "CMC": 30, "Surf. Tens. at the CMC": 15.5}
{"molecule": "C[N+](C)(CCO)CCCNC(=O)C(F)(C(F)(F)F)C(F)(F)C(F)(F)C(F)(F)C(F)(F)C(F)(F)F", "note": "(stereo not shown) [Example F3]", "CMC": 1000, "Surf. Tens. at the CMC": 17.0}
{"molecule": "C[N+](C)(CCO)CCCNC(=O)C(F)(C(F)(F)F)C(F)(F)C(F)(F)C(F)(F)C(F)(F)C(F)(F)C(F)(F)C(F)(F)F", "note": "(stereo not shown) [Example F4]", "CMC": 300, "Surf. Tens. at the CMC": 19.0}
{"molecule": "O=C(NCCC[N+]1(CCO)CCOCC1)C(F)(C(F)(F)F)C(F)(F)C(F)(F)C(F)(F)C(F)(F)C(F)(F)C(F)(F)C(F)(F)F", "note": "(stereo not shown) [Example F5]", "CMC": 1000, "Surf. Tens. at the CMC": 20.8}
{"molecule": "CN(C)CCCN(CCCN(C)C)C(=O)C(F)(C(F)(F)F)C(F)(F)C(F)(F)C(F)(F)C(F)(F)C(F)(F)C(F)(F)C(F)(F)F", "note": "(stereo not shown) [Example F9, C7 F15 CF(CF3)CON[C3 H6 N^+ (CH3)2 H]2 2[^- OOCCH3]]", "CMC": 1000, "Surf. Tens. at the CMC": 22.0}
{"molecule": "C[N+](C)(CCCNC(=O)C(F)(C(F)(F)F)C(F)(F)C(F)(F)C(F)(F)C(F)(F)C(F)(F)C(F)(F)C(F)(F)F)CCC(=O)[O-]", "note": "(stereo not shown) [Example K1, C7 F15 CF(CF3)CONH(CH2)3 N^+ (CH3)2 C2 H4 COO^-]", "Surf. Tens. at the CMC": 16.6}
{"molecule": "O=C([O-])CC[N+]1(CCCNC(=O)C(F)(C(F)(F)F)C(F)(F)C(F)(F)C(F)(F)C(F)(F)C(F)(F)C(F)(F)C(F)(F)F)CCOCC1", "note": "(stereo not shown) [Example K3]", "CMC": 1000, "Surf. Tens. at the CMC": 19.2}
{"molecule": "C[N+](C)(CCCN(CCC[N+](C)(C)CCC(=O)[O-])C(=O)C(F)(C(F)(F)F)C(F)(F)C(F)(F)C(F)(F)C(F)(F)C(F)(F)C(F)(F)C(F)(F)F)CCC(=O)[O-]", "note": "(stereo not shown) [Example K4]", "CMC": 100, "Surf. Tens. at the CMC": 23.6}
{"molecule": "C6 F13 CF(CF3)CON(C3 H6 SO3^-)(CH2)3 N^+ (CH3)2 H [Example K2]", "CMC": 500, "Surf. Tens. at the CMC": 20.3}
{"molecule": "C8 F17 CF(CF3)CO(OCH2 CH2)16 OCH3 [Example J1]", "CMC": 150, "Surf. Tens. at the CMC": 22}
